Experimental data taken from ChEMBL document CHEMBL1201862, “PubChem BioAssay data set” (2004).
Activity calls are given as the source filed them.

Assays:
[1] = target: T1, High affinity choline transporter 1 (Homo sapiens, UniProt Q9GZV3); assay: human choline transporter blockers, potency – cell-based, 10-point CRC, membrane potential dye, dose response (AID 588401); assay type: functional;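 also: membrane potential dye fluorescence of choline-evoked depolarization via CHT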
T1 sequence (Q9GZV3 whole entry): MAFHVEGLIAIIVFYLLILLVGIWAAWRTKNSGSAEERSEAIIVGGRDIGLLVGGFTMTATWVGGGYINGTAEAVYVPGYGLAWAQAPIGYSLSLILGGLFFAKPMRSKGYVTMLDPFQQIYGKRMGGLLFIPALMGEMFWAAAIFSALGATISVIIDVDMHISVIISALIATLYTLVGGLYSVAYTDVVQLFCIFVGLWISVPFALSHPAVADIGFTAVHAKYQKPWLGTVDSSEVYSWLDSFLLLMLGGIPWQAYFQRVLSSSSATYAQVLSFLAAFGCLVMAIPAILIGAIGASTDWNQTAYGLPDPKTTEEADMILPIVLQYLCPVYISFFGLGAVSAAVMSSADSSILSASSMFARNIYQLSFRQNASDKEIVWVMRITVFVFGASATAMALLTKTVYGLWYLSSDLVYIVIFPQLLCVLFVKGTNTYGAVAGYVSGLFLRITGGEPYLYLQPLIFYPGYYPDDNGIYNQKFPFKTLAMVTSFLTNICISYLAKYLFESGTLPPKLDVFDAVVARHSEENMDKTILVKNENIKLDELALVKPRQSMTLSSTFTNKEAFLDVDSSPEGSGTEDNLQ

[2] = target: T1, High affinity choline transporter 1; assay: human choline transporter blockers, potency – cell-based, 5-point CRC, membrane potential dye, dose response (AID 504840); assay type: functional
[3] = Luminescence Cell-Based Dose Response HTS to Identify Inhibitors of 5'UTR Stem-Loop Driven Prion Protein mRNA Translation in H4 Neuroglioblastoma Cells. [Related pubchem assays: 1827 (Project Summary), 1813 (Primary HTS)]; assay type: functional
[4] = alpha-synuclein stem-loop luciferase translation blockers – H4 neuroglioma cells, luminescence, confirmation (AID 1988); assay type: functional, cell-based
HEK293 = assay: EBV LMP1 TES2 canonical NF-kB signalling blockers – cell-based, HEK293, luciferase, cherry-pick, dose response (AID 588343); assay type: functional; details: Homo sapiens
[5] = luciferase reporter signal suppression in cells – H4 neuroglioma cells, luminescence, dose response (AID 1990); assay type: functional, cell-based
[6] = A Cell Based Secondary Assay To Explore Cytotoxicity of Compounds that Sensitize Mycobacterium Tuberculosis to Beta-Lactam Antibiotics.; assay type: functional
[7] = viability loss in HEK293T cells – cell-based, cherry-picks, cytotoxicity control for HIV Vif inhibitor project, dose response (AID 652208); assay type: functional
[8] = HEK-293T viability loss, compound-treated – cell-based, uHTS hits, cytotoxicity control for B/T-cell NF-kB inhibitor project, dose response (AID 489019); assay type: functional;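 also: IC50 reflects cytotoxicity as loss of cell viability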
Jurkat = assay: blockers of NF-kB activation in T cells – Jurkat, luciferase reporter, luminescence, B- and T-cell, dose response (AID 489004); assay type: functional, cell-based; details: Homo sapiens;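 also: NF-kB luciferase reporter Jurkat cells stimulated with PMA plus ionomycin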
Albumin = Albumin (Bos taurus, UniProt P02769); assay: Counterscreen for inhibitors of T-cell receptor (TCR)-CD3 interaction: Fluorescence-based biochemical high throughput dose response assay to identify inhibitors of T-cell receptor (TCR)-CD3 interaction using a TAMRA-labeled BSA probe.; assay type: functional
Genome polyprotein = Genome polyprotein (dengue virus type 2, UniProt P29990); assay: flavivirus cap methylation enzyme inhibition – biochemical, confirmation dose response, primary screen (AID 588689); assay type: functional
[9] = target: T2, Polyadenylate-binding protein 1 (Homo sapiens, UniProt P11940); assay: MLLE domain peptide-binding blockers, IC50 – biochemical, fluorescence polarization, FITC-PAM2 peptide, dose response (AID 602259); assay type: functional; details: read-out: IC50_Mean
[10] = viability loss in HeLa cells – cytotoxicity control for MgcRacGAP inhibitor project, dose response (AID 624300); assay type: functional
Vero = assay: viability of Vero cells under compound – cytotoxicity control for flavivirus capping enzyme inhibitors (AID 588742); assay type: functional; details: Chlorocebus sabaeus
[11] = target: T2, Polyadenylate-binding protein 1; assay: MLLE binding blockers, Cy5 peptide tracer – biochemical, fluorescence polarization, Cy5-PAM2 peptide, secondary, miRNA deadenylation inhibitor project, dose response (AID 602260); assay type: functional; details: read-out: IC50_Mean
Keap1/Nrf2 = Keap1/Nrf2 (Homo sapiens, UniProt Q14145); assay: disruptors of Keap1 binding to Nrf2 peptide – biochemical, fluorescence polarization, cherry-picked samples, dose response (AID 588683)
[12] = target: T3, Histone-lysine N-methyltransferase NSD2 (Homo sapiens, UniProt O96028); assay type: biochemical
T3 sequence (O96028 whole entry): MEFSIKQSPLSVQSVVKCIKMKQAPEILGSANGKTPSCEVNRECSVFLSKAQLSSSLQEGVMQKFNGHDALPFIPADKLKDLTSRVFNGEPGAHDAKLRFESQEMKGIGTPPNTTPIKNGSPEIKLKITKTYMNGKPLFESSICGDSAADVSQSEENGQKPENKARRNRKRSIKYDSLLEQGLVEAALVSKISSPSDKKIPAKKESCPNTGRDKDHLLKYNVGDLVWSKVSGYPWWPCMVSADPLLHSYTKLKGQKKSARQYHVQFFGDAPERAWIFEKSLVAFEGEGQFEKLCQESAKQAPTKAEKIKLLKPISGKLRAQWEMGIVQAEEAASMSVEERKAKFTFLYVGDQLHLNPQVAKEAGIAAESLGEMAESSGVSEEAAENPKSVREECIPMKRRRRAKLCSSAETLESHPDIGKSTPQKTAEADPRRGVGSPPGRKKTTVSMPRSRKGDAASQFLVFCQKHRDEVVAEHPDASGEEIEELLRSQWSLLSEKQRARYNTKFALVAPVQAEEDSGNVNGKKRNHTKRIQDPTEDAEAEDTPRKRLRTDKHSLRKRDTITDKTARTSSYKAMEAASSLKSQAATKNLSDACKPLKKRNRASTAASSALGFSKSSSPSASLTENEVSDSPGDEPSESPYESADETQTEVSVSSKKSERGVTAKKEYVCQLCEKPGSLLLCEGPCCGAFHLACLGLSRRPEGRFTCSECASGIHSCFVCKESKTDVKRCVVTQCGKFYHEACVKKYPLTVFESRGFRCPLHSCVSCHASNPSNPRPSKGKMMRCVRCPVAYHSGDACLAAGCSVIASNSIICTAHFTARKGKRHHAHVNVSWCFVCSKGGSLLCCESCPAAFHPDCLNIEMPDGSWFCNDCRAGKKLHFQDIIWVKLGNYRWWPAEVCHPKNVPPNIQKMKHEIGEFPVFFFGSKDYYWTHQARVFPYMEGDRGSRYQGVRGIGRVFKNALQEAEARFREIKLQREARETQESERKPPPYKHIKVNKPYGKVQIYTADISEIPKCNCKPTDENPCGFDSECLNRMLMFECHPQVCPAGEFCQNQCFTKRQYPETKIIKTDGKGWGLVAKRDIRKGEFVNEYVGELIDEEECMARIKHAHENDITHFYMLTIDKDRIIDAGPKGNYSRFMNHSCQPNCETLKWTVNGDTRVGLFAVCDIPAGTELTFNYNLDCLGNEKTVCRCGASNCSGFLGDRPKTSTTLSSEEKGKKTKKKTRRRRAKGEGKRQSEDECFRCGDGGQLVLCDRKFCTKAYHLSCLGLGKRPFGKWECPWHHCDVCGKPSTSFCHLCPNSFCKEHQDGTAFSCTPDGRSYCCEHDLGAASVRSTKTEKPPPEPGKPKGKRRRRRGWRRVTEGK

Hexokinase HKDC1 = target: T4, Hexokinase HKDC1 (Homo sapiens, UniProt Q2TB90); assay: SAR analysis of small molecule inhibitors of hexokinase domain containing I (HKDC1). [Related pubchem assays (depositor defined):AID493160, AID493190]; assay type: functional
T4 sequence (Q2TB90 whole entry): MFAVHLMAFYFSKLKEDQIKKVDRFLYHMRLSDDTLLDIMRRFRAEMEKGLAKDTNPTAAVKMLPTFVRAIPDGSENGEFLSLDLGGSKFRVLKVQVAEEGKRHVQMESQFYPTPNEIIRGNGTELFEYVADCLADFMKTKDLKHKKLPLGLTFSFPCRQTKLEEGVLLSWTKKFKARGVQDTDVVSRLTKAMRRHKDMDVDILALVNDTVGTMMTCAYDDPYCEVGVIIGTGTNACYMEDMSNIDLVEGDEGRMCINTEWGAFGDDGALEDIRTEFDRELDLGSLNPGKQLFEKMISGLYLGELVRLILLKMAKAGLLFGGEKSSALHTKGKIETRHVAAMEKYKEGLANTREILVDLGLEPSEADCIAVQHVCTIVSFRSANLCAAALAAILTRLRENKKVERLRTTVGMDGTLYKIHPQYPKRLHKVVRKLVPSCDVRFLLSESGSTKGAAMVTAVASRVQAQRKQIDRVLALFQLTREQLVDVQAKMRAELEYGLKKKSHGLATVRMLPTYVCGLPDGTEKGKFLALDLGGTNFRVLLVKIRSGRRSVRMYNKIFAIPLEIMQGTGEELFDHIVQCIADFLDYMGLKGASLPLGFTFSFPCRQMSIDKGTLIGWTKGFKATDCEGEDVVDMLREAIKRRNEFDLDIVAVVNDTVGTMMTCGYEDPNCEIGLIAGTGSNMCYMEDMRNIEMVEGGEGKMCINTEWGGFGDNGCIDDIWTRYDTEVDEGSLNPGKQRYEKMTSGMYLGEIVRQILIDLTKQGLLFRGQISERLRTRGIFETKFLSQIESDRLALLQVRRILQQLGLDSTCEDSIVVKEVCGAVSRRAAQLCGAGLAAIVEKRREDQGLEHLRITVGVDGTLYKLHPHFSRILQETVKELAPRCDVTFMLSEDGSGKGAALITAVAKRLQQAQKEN

Hexokinase-1 = target: T5, Hexokinase-1 (Homo sapiens, UniProt P19367); assay: SAR analysis of small molecule inhibitors of hexokinase domain containing I (HKDC1) in the hexokinase 1 selectivity assay. [Related pubchem assays (depositor defined):AID493160, AID493190]; assay type: functional
T5 sequence (P19367 whole entry): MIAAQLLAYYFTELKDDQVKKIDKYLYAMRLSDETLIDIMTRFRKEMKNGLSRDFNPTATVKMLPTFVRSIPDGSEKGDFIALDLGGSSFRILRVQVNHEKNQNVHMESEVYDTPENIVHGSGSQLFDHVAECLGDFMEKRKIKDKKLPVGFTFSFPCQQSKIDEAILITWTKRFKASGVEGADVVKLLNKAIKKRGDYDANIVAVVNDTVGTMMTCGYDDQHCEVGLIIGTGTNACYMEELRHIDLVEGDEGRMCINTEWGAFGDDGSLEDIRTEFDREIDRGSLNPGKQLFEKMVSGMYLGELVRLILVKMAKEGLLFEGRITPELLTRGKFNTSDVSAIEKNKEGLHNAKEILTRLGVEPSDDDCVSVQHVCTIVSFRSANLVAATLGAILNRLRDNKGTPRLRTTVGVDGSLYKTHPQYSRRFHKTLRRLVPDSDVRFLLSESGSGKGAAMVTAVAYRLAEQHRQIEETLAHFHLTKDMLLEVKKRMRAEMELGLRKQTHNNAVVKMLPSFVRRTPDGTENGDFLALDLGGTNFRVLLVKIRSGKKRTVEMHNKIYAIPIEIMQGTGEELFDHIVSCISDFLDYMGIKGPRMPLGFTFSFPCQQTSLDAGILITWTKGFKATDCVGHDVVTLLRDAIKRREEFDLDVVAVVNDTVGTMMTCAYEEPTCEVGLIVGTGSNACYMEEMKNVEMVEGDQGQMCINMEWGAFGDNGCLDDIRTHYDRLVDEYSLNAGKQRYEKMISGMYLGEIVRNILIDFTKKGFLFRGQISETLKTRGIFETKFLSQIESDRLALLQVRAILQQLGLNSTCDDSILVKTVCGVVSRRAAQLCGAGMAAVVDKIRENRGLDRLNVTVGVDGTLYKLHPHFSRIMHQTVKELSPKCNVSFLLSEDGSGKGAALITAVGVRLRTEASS

T2 sequence (P11940 whole entry, the tested form may be a part): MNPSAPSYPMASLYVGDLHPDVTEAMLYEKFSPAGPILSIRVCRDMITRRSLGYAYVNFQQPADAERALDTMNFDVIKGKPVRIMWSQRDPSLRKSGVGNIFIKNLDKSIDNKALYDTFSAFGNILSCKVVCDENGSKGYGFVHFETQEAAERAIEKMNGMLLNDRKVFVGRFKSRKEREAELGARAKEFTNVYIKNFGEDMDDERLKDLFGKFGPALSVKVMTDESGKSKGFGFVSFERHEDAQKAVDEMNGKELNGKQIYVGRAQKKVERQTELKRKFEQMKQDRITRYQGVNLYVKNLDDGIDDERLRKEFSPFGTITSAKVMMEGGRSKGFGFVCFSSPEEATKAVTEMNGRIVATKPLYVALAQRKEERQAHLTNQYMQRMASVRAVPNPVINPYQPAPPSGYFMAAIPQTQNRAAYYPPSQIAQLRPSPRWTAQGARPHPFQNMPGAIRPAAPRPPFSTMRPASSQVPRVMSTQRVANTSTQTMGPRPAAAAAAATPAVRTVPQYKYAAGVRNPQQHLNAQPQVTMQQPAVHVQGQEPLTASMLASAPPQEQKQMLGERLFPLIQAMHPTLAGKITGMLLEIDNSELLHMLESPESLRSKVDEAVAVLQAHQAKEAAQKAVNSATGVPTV
Keap1/Nrf2, sequence (Q16236 whole entry): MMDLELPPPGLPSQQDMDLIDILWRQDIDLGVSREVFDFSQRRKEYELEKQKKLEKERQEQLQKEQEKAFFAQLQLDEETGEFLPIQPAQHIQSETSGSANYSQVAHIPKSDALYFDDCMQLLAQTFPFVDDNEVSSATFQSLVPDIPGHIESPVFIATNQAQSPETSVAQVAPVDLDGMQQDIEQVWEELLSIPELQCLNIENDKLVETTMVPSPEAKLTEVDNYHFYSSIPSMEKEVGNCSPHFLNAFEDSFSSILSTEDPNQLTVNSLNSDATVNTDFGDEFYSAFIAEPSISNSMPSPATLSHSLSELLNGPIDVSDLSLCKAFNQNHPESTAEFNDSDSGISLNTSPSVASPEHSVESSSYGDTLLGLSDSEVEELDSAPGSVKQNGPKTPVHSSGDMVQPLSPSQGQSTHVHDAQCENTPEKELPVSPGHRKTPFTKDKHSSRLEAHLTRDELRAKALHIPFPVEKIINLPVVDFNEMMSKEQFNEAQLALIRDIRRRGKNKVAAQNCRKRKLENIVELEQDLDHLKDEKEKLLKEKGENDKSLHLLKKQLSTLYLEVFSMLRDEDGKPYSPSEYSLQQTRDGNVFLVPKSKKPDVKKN
Keap1/Nrf2, sequence (Q14145 whole entry): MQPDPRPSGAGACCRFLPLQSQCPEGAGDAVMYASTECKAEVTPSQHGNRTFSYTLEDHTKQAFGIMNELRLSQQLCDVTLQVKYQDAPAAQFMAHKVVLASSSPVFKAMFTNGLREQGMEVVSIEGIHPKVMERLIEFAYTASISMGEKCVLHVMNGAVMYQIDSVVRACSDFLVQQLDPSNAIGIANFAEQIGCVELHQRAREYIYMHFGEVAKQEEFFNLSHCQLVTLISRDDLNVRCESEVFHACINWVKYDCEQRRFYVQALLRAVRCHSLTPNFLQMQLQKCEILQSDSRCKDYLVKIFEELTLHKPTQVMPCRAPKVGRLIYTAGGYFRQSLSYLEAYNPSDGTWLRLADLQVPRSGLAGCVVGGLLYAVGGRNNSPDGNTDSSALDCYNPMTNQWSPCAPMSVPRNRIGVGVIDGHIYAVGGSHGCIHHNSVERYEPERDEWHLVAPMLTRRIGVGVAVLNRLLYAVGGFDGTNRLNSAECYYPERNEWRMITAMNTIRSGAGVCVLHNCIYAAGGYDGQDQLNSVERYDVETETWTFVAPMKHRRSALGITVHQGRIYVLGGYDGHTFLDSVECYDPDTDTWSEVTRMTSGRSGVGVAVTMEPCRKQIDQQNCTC
Albumin, sequence (P02769 whole entry): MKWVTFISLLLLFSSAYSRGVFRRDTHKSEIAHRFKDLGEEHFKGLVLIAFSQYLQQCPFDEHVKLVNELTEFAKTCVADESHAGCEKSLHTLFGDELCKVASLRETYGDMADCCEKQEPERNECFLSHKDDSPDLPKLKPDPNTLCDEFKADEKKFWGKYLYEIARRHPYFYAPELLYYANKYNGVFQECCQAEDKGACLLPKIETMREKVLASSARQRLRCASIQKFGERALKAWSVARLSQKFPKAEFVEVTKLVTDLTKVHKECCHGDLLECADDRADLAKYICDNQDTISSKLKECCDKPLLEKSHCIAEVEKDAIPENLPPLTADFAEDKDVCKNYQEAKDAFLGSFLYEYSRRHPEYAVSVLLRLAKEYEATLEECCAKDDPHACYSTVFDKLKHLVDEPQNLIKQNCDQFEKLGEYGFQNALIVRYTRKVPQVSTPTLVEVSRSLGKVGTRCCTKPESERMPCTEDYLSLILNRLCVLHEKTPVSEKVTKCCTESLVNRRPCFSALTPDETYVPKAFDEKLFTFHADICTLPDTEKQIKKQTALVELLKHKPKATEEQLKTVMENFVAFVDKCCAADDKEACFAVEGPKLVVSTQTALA
Genome polyprotein, sequence (P29990 2492-3391 limits assumed): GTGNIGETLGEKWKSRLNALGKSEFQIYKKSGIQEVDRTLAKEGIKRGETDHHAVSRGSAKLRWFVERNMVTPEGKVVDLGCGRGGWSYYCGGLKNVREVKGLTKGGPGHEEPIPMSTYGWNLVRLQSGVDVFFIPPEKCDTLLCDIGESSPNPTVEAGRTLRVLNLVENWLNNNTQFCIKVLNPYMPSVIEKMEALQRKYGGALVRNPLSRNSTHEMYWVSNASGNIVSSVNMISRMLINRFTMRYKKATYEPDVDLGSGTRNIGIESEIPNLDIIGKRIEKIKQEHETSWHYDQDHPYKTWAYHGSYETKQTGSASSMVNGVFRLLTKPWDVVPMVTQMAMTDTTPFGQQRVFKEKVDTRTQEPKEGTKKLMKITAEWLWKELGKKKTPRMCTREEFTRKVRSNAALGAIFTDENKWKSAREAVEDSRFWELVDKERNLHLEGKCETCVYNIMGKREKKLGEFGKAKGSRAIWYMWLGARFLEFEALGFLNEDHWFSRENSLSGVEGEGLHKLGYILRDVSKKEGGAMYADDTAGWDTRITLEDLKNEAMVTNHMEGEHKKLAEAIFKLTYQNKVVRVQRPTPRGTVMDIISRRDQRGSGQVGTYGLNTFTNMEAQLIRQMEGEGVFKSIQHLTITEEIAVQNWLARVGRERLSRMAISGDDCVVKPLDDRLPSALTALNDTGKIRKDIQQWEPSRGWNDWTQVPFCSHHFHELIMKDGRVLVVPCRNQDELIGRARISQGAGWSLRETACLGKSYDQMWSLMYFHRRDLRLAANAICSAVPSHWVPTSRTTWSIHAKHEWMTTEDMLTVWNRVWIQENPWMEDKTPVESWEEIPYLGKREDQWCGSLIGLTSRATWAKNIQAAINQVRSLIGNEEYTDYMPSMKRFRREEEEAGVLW

Structure (SMILES): CC1=NOC(=O)/C1=C/c1ccc(O)c(Cl)c1
- IC50 [1]: 3.57 µM (active)
- IC50 [2]: 6.99 µM (active)

Structure (SMILES): CCc1cc2c(Sc3nc4ccccc4s3)ncnc2s1
- EC50 [3]: 16.3 µM (active)
- EC50 [4]: 3.87 µM (active)
- AC50 (HEK293): 4.9 µM (active)
- EC50 [5]: > 120 µM (not active)
- CC50 [6]: 30.2 µM (active)
- AC50 [7]: > 52 µM (inactive)
- IC50 [8]: > 80 µM (inactive)
- IC50 (Jurkat): < 160 nM (active)

Structure (SMILES): O=C1C(Cl)=C(N2CCN(CCO)CC2)C(=O)c2c(O)ccc(O)c21
- IC50 (Albumin): 29.1 µM (inactive)
- IC50 (Genome polyprotein): 4.58 µM (active)
- IC50 [9]: 60.6 µM (inactive)
- CC50 [10]: 12.9 µM (active)
- CC50 (Vero): 2.85 µM (active)
- IC50 [11]: > 66 µM (inactive)
- AC50 (Keap1/Nrf2): > 52 µM (inactive)
- AC50 [12]: 4.44 µM (active)

Structure (SMILES): COc1ccc(Cn2c(/C=C/c3cccnc3)nc3ccccc3c2=O)cc1
- IC50 (Hexokinase HKDC1): > 80 µM (inactive)
- IC50 (Hexokinase-1): > 80 µM (inactive)

Structure (SMILES): O=C(Nc1cccc(C(F)(F)F)c1)c1cccc(NC(=O)c2ccccn2)c1
- IC50 (Hexokinase HKDC1): > 80 µM (inactive)
- IC50 (Hexokinase-1): > 80 µM (inactive)

Structure (SMILES): O=c1c2ccccc2nc(/C=C/c2ccc(F)cc2)n1Cc1ccccc1
- IC50 (Hexokinase HKDC1): > 80 µM (inactive)
- IC50 (Hexokinase-1): > 80 µM (inactive)
